Like-named read-outs stand apart in the source and are kept apart here.
Assays:
T-cell = assay: IL-2 secretion from T-cells co-stimulated with anti-CD3 and anti-CD28 antibody (Biological Example 2); assay type: cell-based, human; settings: Homo sapiens, T-cell, primary human total T-cells
In short: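 T-cells were stimulated with anti-CD3 antibody alone or with anti-CD28 antibody, in the presence or absence of Cbl-b inhibitor. IL-2 secretion or CD25 surface staining was measured, and values expressed as fold over the uninhibited baseline […].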

Cbl-b (residues 36-427) = Cbl-b (residues 36-427) (Homo sapiens, UniProt Q13191); assay: Cbl-b binding assay (SPR, Biacore T200); settings: 20° C., 1:1 binding model
In short: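 Steps: capture protein on NeutrAvidin surface; inject compound dilutions (8 or 10 points from 100 or 50 μM) 50 s; allow 90-180 s dissociation; regenerate 20 s with 0.3 M NaCl. Runs at 20° C in HEPES pH 7.5/100 mM NaCl/2% DMSO; 1:1 fitting.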

[1] = fold change over baseline, 0.3 μM Cbl-b inhibitor, read-out: IL-2 secretion Anti-CD3/Anti-CD28 stimulation
[2] = fold change over baseline, 1 μM Cbl-b inhibitor, read-out: IL-2 secretion Anti-CD3/Anti-CD28 stimulation
[3] = fold change over baseline, 4 μM Cbl-b inhibitor, read-out: IL-2 secretion Anti-CD3/Anti-CD28 stimulation
[4] = 0.3 μM compound, baseline = anti-CD3/anti-CD28 stimulated cells without inhibitor, read-out: IL-2 secretion, Anti-CD3/Anti-CD28 stimulation, fold change over baseline
[5] = 1 μM compound, baseline = anti-CD3/anti-CD28 stimulated cells without inhibitor, read-out: IL-2 secretion, Anti-CD3/Anti-CD28 stimulation, fold change over baseline
[6] = 4 μM compound, baseline = anti-CD3/anti-CD28 stimulated cells without inhibitor, read-out: IL-2 secretion, Anti-CD3/Anti-CD28 stimulation, fold change over baseline

Cbl-b (residues 36-427), sequence (Q13191 36-427): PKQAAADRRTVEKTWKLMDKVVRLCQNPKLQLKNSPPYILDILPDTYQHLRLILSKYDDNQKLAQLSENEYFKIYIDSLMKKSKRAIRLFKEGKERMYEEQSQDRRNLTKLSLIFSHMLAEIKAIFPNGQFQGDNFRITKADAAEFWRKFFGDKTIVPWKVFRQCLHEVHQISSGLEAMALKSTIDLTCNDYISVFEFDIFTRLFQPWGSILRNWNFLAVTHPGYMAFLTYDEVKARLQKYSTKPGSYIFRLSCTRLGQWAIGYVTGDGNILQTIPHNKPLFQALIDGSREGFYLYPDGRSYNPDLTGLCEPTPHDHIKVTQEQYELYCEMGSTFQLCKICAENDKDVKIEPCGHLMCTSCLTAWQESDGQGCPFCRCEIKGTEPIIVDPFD

| SMILES | fold induction at 0.3 µM (T-cell; [1]) | fold induction at 1 µM (T-cell; [2]) | fold induction at 4 µM (T-cell; [3]) | Kd (Cbl-b (residues 36-427)) [nM] | fold induction at 0.3 µM (T-cell; [4]) | fold induction at 1 µM (T-cell; [5]) | fold induction at 4 µM (T-cell; [6]) |
| --- | --- | --- | --- | --- | --- | --- | --- |
| Cn1cnnc1C(F)(F)C(C)(F)c1cccc(N2Cc3c(cccc3C(F)(F)F)C2=O)c1 (racemic) [Compound 296, 2-(3-(1,1,2-trifluoro-1-(4-methyl-4H-1,2,4-triazol-3-yl)propan-2-yl)phenyl)-4-(trifluoromethyl)isoindolin-1-one] | < 1 | < 1 | 1.01 to 2.5 | 3000 to 10000 |  |  |  |
| Cn1cnnc1CC(C)(F)c1cccc(N2Cc3c(cccc3C(F)(F)F)C2=O)c1 (racemic) [Compound 298, 2-(3-(2-fluoro-1-(4-methyl-4H-1,2,4-triazol-3-yl)propan-2-yl)phenyl)-4-(trifluoromethyl)isoindolin-1-one] | 5 to 7.5 | 5 to 7.5 | > 7.5 | < 100 |  |  |  |
| C[C@H](Cc1nncn1C)c1cc(N[C@@H]2CCOC2)nc(N2Cc3c(cccc3C(F)(F)F)C2=O)c1 (stereo in doubt) [Compound 362, 2-(4-((R)-1-(4-methyl-4H-1,2,4-triazol-3-yl)propan-2-yl)-6-((S)-THF-3-ylamino)pyridin-2-yl)-4-(trifluoromethyl)isoindolin-1-one] | 1.01 to 2.5 | 1.01 to 2.5 | 1.01 to 2.5 | 100 to 300 |  |  |  |
| Cc1cc(C(=O)Nc2cccc([C@H](C)Sc3nncn3C)c2)nc2ccccc12 [Compound 30, (S)-4-Methyl-N-(3-(1-((4-methyl-4H-1,2,4-triazol-3-yl)thio)ethyl)phenyl)quinoline-2-carboxamide] | 1.01 to 2.5 | 1.01 to 2.5 | 2.51 to 5 | 1000 to 3000 |  |  |  |
| C[C@H](Sc1nncn1C)c1cccc(NC(=O)c2cc(C(F)(F)F)ccn2)c1 [Compound 32, (S)-N-(3-(1-((4-Methyl-4H-1,2,4-triazol-3-yl)thio)ethyl)phenyl)-4-(trifluoromethyl)picolinamide] | < 1 | 1.01 to 2.5 | 1.01 to 2.5 | 1000 to 3000 |  |  |  |
| CC(C)c1cccc(C(=O)Nc2cccc([C@H](C)Sc3nncn3C)c2)n1 [Compound 33, (S)-6-Isopropyl-N-(3-(1-((4-methyl-4H-1,2,4-triazol-3-yl)thio)ethyl)phenyl)picolinamide] | 2.51 to 5 | 2.51 to 5 | > 7.5 | 301 to 1000 |  |  |  |
| Cc1ccc(C(=O)Nc2cccc([C@H](C)Sc3nncn3C)c2)nc1C [Compound 35, (S)-5,6-Dimethyl-N-(3-(1-((4-methyl-4H-1,2,4-triazol-3-yl)thio)ethyl)phenyl)picolinamide] | 1.01 to 2.5 | 2.51 to 5 | 2.51 to 5 | 3000 to 10000 |  |  |  |
| Cc1cccc2nc(C(=O)Nc3cccc([C@H](C)Sc4nncn4C)c3)ccc12 [Compound 48, 5-Methyl-N-[3-[(1S)-1-[(4-methyl-4H-1,2,4-triazol-3-yl)sulfanyl]ethyl]phenyl]quinoline-2-carboxamide] | 2.51 to 5 | 5 to 7.5 | > 7.5 | 1000 to 3000 |  |  |  |
| C[C@H](Sc1nncn1C)c1cccc(NC(=O)c2ccc(Cl)c(C(F)(F)F)n2)c1 [Compound 51, (S)-5-chloro-N-(3-(1-((4-methyl-4H-1,2,4-triazol-3-yl)thio)ethyl)phenyl)-6-(trifluoromethyl)picolinamide] | < 1 | < 1 | 1.01 to 2.5 | 301 to 1000 |  |  |  |
| C[C@H](Sc1nncn1C)c1cccc(NC(=O)c2cc(C(C)(C)O)c(Cl)cn2)c1 [Compound 55, (S)-5-chloro-4-(2-hydroxypropan-2-yl)-N-(3-(1-((4-methyl-4H-1,2,4-triazol-3-yl)thio)ethyl)phenyl)picolinamide] | 1.01 to 2.5 | 1.01 to 2.5 | 1.01 to 2.5 | 1000 to 3000 |  |  |  |
| Cc1cc(C)nc(C(=O)Nc2cccc([C@H](C)Sc3nncn3C)c2)c1 [Compound 56, (S)-4,6-dimethyl-N-(3-(1-((4-methyl-4H-1,2,4-triazol-3-yl)thio)ethyl)phenyl)picolinamide] | 2.51 to 5 | 5 to 7.5 | > 7.5 | 1000 to 3000 |  |  |  |
| Cc1ccc(C(=O)Nc2cccc([C@H](C)Sc3nncn3C)c2)nc1C(F)(F)F [Compound 61, (S)-5-methyl-N-(3-(1-((4-methyl-4H-1,2,4-triazol-3-yl)thio)ethyl)phenyl)-6-(trifluoromethyl)picolinamide] | < 1 | < 1 | 1.01 to 2.5 | 100 to 300 |  |  |  |
| COc1nc(C(=O)Nc2cccc([C@H](C)Sc3nncn3C)c2)cc2ccccc12 [Compound 62, (S)-1-methoxy-N-(3-(1-((4-methyl-4H-1,2,4-triazol-3-yl)thio)ethyl)phenyl)isoquinoline-3-carboxamide] | 2.51 to 5 | 5 to 7.5 | > 7.5 | 301 to 1000 |  |  |  |
| C[C@H](Sc1nncn1C)c1cccc(NC(=O)c2cc(C(F)(F)F)cc(C(F)(F)F)n2)c1 [Compound 64, (S)-N-(3-(1-((4-methyl-4H-1,2,4-triazol-3-yl)thio)ethyl)phenyl)-4,6-bis(trifluoromethyl)picolinamide] | < 1 | < 1 | 1.01 to 2.5 | 1000 to 3000 |  |  |  |
| C[C@H](Sc1nncn1C)c1cccc(NC(=O)c2cc(Cl)cc(C(F)(F)F)n2)c1 [Compound 68, (S)-4-chloro-N-(3-(1-((4-methyl-4H-1,2,4-triazol-3-yl)thio)ethyl)phenyl)-6-(trifluoromethyl)picolinamide] | 1.01 to 2.5 | 1.01 to 2.5 | 1.01 to 2.5 | 301 to 1000 |  |  |  |
| C[C@H](Sc1nncn1C)c1cccc(NC(=O)c2cc(C(F)(F)F)cc(C3CC3)n2)c1 [Compound 69, (S)-6-cyclopropyl-N-(3-(1-((4-methyl-4H-1,2,4-triazol-3-yl)thio)ethyl)phenyl)-4-(trifluoromethyl)picolinamide] | < 1 | < 1 | 1.01 to 2.5 | 3000 to 10000 |  |  |  |
| Cc1ncc(C(=O)Nc2cccc([C@H](C)Sc3nncn3C)c2)nc1C1CC1 [Compound 70, (S)-6-cyclopropyl-5-methyl-N-(3-(1-((4-methyl-4H-1,2,4-triazol-3-yl)thio)ethyl)phenyl)pyrazine-2-carboxamide] | < 1 | 1.01 to 2.5 | 2.51 to 5 | 301 to 1000 |  |  |  |
| COc1cc(C(=O)Nc2cccc([C@H](C)Sc3nncn3C)c2)nc(C(F)(F)F)c1 [Compound 71, (S)-4-methoxy-N-(3-(1-((4-methyl-4H-1,2,4-triazol-3-yl)thio)ethyl)phenyl)-6-(trifluoromethyl)picolinamide] | 2.51 to 5 | 2.51 to 5 | 5 to 7.5 | 100 to 300 |  |  |  |
| C[C@H](Cc1nncn1C)c1cccc(NC(=O)c2cccc(CCO)n2)c1 [Compound 202, 6-(2-hydroxyethyl)-N-[3-[(2R)-1-(4-methyl-4H-1,2,4-triazol-3-yl)propan-2-yl]phenyl]pyridine-2-carboxamide] | 1.01 to 2.5 | 1.01 to 2.5 | 2.51 to 5 |  |  |  |  |
| Cn1cnnc1C(F)(F)[C@](C)(F)c1cccc(N2Cc3c(cccc3C(F)(F)F)C2=O)c1 [Compound 296a, (R)-2-(3-(1,1,2-trifluoro-1-(4-methyl-4H-1,2,4-triazol-3-yl)propan-2-yl)phenyl)-4-(trifluoromethyl)isoindolin-1-one] | 1.01 to 2.5 | 1.01 to 2.5 | 2.51 to 5 |  |  |  |  |
| Cn1cnnc1[C@@H]1C[C@@H]1c1cccc(N2Cc3c(ccnc3C(F)(F)F)C2=O)c1 [Compound 369, 2-{3-[(1S,2R)-2-(4-methyl-4H-1,2,4-triazol-3-yl)cyclopropyl]phenyl}-4-(trifluoromethyl)-1H,2H,3H-pyrrolo[3,4-c]pyridin-1-one] |  |  |  |  | 1.01 to 2.5 | 1.01 to 2.5 | 1.01 to 2.5 |
| Cc1cc2c(c(C3CC3)n1)CN(c1cccc([C@H](C)Cc3nncn3C)c1)C2=O [Compound 372, 4-cyclopropyl-6-methyl-2-{3-[(2R)-1-(4-methyl-4H-1,2,4-triazol-3-yl)propan-2-yl]phenyl}-1H,2H,3H-pyrrolo[3,4-c]pyridin-1-one] |  |  |  |  | 1.01 to 2.5 | 1.01 to 2.5 | 2.51 to 5 |
| CNCc1ccc(C(=O)Nc2cccc([C@H](C)Cc3nncn3C)c2)nc1C1CC1 [Compound 376, (R)-6-cyclopropyl-N-(3-(1-(4-methyl-4H-1,2,4-triazol-3-yl)propan-2-yl)phenyl)-5-((methylamino)methyl)picolinamide] |  |  |  |  | 1.01 to 2.5 | 2.51 to 5 | > 7.5 |
